Reference: ChEMBL document CHEMBL1811901, “Bioactive sulfoximines: syntheses and properties of Vioxx analogs” (Bioorg Med Chem Lett, 2011)

Legend:
hERG (KCNH2) [1] = molecular target: T1, hERG (KCNH2) (Homo sapiens, UniProt Q12809); experiment: Inhibition of human ERG expressed in HEK293 cells assessed as inhibition of tail current at holding potential of -70 mV at 31.6 uM after 10 mins by whole-cell patch clamp method; format: cell-based; details: HEK293 cells that express hERG
hERG (KCNH2) [2] = molecular target: T1, hERG (KCNH2); experiment: Inhibition of human ERG expressed in HEK293 cells assessed as inhibition of tail current at holding potential of -70 mV at 100 uM after 10 mins by whole-cell patch clamp method; format: cell-based; details: HEK293 cells that express hERG
hERG (KCNH2) [3] = molecular target: T1, hERG (KCNH2); experiment: Inhibition of human ERG expressed in HEK293 cells assessed as inhibition of tail current at holding potential of -70 mV at 1 uM after 10 mins by whole-cell patch clamp method; format: cell-based; details: HEK293 cells that express hERG
hERG (KCNH2) [4] = molecular target: T1, hERG (KCNH2); experiment: Inhibition of human ERG expressed in HEK293 cells assessed as inhibition of tail current at holding potential of -70 mV at 10 uM after 10 mins by whole-cell patch clamp method; format: cell-based; details: HEK293 cells that express hERG
hERG (KCNH2) [5] = molecular target: T1, hERG (KCNH2); experiment: Inhibition of human ERG expressed in HEK293 cells assessed as inhibition of tail current at holding potential of -70 mV at 3.16 uM after 10 mins by whole-cell patch clamp method relative to control; format: cell-based; details: HEK293 cells that express hERG
hERG (KCNH2) [6] = molecular target: T1, hERG (KCNH2); experiment: Inhibition of human ERG expressed in HEK293 cells assessed as inhibition of tail current at holding potential of -70 mV at 3.16 uM after 10 mins by whole-cell patch clamp method; format: cell-based; details: HEK293 cells that express hERG
[7] = molecular target: T2, Prostaglandin G/H synthase 1 (Homo sapiens, UniProt P23219); experiment: Inhibition of human platelets COX1 assessed as PGE2 production using arachidonic acid as substrate at 10 uM preincubated for 15 mins measured after 15 mins by EIA
T2 sequence (P23219 whole entry): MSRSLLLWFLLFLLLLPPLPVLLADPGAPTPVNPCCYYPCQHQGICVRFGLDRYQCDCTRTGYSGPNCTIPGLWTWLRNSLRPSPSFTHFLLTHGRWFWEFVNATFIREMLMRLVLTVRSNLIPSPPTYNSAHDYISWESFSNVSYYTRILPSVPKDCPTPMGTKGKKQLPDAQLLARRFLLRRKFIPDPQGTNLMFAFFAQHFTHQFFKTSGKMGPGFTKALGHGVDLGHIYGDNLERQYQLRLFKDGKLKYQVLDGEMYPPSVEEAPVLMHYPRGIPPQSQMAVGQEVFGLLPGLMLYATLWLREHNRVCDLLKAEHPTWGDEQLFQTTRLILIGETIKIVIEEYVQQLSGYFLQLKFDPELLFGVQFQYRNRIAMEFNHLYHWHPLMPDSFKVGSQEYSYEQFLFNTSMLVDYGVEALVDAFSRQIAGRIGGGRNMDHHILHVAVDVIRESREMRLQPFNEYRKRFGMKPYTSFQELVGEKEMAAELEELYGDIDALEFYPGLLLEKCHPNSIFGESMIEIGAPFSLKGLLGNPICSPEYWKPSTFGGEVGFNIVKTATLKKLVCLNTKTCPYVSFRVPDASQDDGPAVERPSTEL

hERG (KCNH2) [8] = molecular target: T1, hERG (KCNH2); experiment: Inhibition of human ERG expressed in HEK293 cells assessed as inhibition of tail current at holding potential of -70 mV at 1 uM after 10 mins by whole-cell patch clamp method relative to control; format: cell-based; details: HEK293 cells that express hERG
[9] = molecular target: T2, Prostaglandin G/H synthase 1; experiment: Inhibition of human platelets COX1 assessed as PGE2 production using arachidonic acid as substrate preincubated for 15 mins measured after 15 mins by EIA
[10] = molecular target: T3, Prostaglandin G/H synthase 2 (Homo sapiens, UniProt P35354); experiment: Inhibition of human recombinant COX2 expressed in Sf21 cells assessed as PGE2 production using arachidonic acid as substrate preincubated for 15 mins measured after 5 mins by EIA
T3 sequence (P35354 whole entry): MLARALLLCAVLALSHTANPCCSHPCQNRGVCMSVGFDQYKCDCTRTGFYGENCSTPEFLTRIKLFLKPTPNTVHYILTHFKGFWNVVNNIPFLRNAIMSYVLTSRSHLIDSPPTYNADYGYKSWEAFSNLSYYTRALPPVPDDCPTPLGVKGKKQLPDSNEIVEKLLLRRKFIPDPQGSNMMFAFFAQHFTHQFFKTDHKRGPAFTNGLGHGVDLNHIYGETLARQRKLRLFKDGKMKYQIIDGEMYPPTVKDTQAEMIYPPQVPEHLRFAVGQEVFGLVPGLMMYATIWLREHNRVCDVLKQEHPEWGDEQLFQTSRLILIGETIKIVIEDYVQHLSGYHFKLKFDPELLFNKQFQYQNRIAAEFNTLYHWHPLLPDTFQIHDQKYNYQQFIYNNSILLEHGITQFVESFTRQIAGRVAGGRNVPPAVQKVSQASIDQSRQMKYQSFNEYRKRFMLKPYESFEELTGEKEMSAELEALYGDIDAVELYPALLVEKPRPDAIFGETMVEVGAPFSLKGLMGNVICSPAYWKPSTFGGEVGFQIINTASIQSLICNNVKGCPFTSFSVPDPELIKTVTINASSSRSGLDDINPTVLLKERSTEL

T1 sequence (Q12809 whole entry): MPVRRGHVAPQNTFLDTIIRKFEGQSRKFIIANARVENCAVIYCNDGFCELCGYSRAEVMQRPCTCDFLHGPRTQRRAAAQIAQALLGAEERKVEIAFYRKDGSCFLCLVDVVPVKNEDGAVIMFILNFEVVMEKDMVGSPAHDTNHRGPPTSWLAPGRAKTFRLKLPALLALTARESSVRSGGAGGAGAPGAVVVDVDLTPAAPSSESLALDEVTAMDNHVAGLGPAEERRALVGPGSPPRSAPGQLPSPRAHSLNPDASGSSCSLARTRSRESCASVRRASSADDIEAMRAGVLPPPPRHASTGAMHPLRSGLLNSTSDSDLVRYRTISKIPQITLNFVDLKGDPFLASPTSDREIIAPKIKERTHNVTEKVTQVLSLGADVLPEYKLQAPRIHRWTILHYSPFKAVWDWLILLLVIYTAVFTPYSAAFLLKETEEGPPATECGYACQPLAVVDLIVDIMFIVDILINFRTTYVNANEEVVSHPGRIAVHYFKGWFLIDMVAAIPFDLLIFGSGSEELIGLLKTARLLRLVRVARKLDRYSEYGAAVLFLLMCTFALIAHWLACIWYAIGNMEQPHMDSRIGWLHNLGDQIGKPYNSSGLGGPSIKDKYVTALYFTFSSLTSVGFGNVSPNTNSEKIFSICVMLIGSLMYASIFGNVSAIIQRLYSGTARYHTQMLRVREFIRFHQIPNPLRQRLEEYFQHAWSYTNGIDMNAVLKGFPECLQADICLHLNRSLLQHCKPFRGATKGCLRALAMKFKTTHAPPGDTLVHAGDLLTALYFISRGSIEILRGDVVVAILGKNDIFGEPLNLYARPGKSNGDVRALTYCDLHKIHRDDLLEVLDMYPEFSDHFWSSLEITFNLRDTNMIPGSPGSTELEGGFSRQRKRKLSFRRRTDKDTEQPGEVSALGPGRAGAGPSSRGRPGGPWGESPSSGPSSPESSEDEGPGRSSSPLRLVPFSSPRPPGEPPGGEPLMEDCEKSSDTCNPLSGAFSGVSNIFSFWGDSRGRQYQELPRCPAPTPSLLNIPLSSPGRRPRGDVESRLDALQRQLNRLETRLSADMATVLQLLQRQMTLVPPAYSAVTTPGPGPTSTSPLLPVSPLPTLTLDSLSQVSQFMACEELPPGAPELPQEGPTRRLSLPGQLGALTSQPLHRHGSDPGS

| IC50 [9] [µM] | IC50 [10] [µM] | Compound | inhibition at 10 min, 31.6 µM (hERG (KCNH2) [1]) [%] | inhibition at 10 min, 100 µM (hERG (KCNH2) [2]) [%] | inhibition at 10 min, 1 µM (hERG (KCNH2) [3]) [%] | inhibition at 10 min, 10 µM (hERG (KCNH2) [4]) [%] | inhibition at 10 min, 3.16 µM (hERG (KCNH2) [5]) [%] | inhibition at 10 min, 3.16 µM (hERG (KCNH2) [6]) [%] | inhibition [7] [%] | inhibition at 10 min, 1 µM (hERG (KCNH2) [8]) [%] |
| --- | --- | --- | --- | --- | --- | --- | --- | --- | --- | --- |
|  |  | CS(=O)(=O)c1ccc(C2=C(c3ccccc3)C(=O)OC2)cc1 [ROFECOXIB] | 19.1 | 27.6 | 6.8 | 10.4 | -10.2 | 8.3 |  |  |
|  |  | C[S+](=N)([O-])c1ccc(C2=C(c3ccccc3)C(=O)OC2)cc1 (stereo unspecified) | 27.6 | 29.6 | 1.7 | 20 |  | 7 | 26 | -0.1 |
| 0.0424 | 0.156 | CN=[S+](C)([O-])c1ccc(C2=C(c3ccccc3)C(=O)OC2)cc1 (stereo unspecified) |  |  |  |  |  |  | 10 |  |
